How the values were obtained:
DPP-4 = DPP-4 (Homo sapiens (Human), UniProt P27487); settings: cited from earlier work
[1] = biological target: dipeptidyl peptidase-IV enzyme (DPP-4) (Homo sapiens (Human), UniProt P27487); experiment: continuous fluorometric DPP-4 inhibition assay with substrate Gly-Pro-AMC; format: biochemical; settings: soluble human DPP-4, Gly-Pro-AMC substrate
Description: Inhibition constants are determined as follows. A continuous fluorometric assay is employed with the substrate Gly-Pro-AMC, which is cleaved by DPP-4 to release the fluorescent AMC leaving group. The kinetic parameters that describe this reaction are as follows: Km=50 μM; kcat=75 s^−1; kcat/Km=1.5×10^6 M^−1s^−1. A typical reaction contains approximately […], 50 μM Gly-Pro-AMC, and buffer (100 mM HEPES, pH 7.5, 0.1 mg/ml BSA) in a total reaction volume of 100 μL. Liberation of AMC is monitored continuously in a 96-well plate fluorometer using an excitation wavelength of 360 nm and an emission wavelength of 460 nm. Under these conditions, approximately 0.8 μM AMC is produced in 30 minutes at 25 degrees C. The enzyme used in these studies was soluble (transmembrane domain and cytoplasmic extension excluded) human protein produced in a baculovirus expression system (Bac-To-Bac, Gibco BRL). […] To measure the dissociation constants for compounds, solutions of inhibitor in DMSO were added to reactions containing enzyme and substrate (final DMSO concentration is 1%). All experiments were conducted at room temperature using the standard reaction conditions described above. To determine the dissociation constants (Ki), reaction rates were fit by non-linear regression to the Michaelis-Menton equation for competitive inhibition. The errors in reproducing the dissociation constants are typically less than two-fold.

mouse = mouse model of cyclophosphamide-induced neutropenia; cited from earlier work
rats = settings: doubled from day 7 to day 14; cited from earlier work

dipeptidyl peptidase-IV enzyme (DPP-4), sequence (P27487 29-766): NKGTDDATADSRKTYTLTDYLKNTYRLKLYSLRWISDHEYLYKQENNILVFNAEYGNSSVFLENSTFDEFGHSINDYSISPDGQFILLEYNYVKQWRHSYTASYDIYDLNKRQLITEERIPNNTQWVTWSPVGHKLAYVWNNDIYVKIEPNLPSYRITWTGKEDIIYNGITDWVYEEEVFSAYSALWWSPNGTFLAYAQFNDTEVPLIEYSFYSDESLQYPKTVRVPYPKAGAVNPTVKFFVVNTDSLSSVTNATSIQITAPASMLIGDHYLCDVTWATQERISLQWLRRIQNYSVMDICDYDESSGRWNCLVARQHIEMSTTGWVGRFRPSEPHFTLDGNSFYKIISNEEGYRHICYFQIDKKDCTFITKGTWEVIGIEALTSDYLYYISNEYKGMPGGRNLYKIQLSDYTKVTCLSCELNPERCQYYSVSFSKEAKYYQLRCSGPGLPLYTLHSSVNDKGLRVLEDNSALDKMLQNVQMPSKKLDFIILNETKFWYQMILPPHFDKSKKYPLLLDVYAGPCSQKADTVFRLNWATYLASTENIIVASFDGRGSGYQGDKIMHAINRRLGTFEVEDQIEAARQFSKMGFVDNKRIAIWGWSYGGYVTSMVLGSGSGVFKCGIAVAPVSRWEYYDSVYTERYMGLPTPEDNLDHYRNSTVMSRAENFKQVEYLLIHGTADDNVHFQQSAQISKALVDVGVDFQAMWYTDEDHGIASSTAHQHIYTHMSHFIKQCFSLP
DPP-4, sequence (P27487 39-766, species assumed): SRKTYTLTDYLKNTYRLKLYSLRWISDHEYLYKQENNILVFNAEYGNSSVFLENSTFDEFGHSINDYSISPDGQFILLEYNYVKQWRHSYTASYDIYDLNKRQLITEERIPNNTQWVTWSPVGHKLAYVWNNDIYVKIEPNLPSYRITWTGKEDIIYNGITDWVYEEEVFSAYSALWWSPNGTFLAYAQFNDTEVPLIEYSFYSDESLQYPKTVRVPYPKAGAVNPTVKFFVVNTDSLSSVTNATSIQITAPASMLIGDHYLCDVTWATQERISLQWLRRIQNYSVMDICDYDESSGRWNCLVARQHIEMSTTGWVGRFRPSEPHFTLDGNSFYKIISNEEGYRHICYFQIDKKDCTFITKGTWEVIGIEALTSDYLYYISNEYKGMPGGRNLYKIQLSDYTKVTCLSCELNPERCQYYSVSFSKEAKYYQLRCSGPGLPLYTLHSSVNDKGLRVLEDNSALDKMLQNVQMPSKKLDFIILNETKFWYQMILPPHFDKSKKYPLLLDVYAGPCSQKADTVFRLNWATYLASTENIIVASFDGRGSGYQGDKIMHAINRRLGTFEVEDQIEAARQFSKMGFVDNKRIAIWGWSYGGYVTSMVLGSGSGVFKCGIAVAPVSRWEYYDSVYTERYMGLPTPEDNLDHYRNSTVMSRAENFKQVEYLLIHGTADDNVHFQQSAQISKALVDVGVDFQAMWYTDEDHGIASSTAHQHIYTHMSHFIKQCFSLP

IC50 [1] | SMILES | further results
> 1000 nM | N[C@H]1CC(N2Cc3c[nH]nc3C2)c2ccccc2[C@@H]1c1cc(F)ccc1F (stereo partly drawn) [Example 1] | –
9 nM | CS(=O)(=O)n1cc2c(n1)CN([C@@H]1C[C@H](N)[C@@H](c3cc(F)ccc3F)[C@H]3CC13)C2 (stereo partly drawn) [Example 2] | –
5.4 nM | CS(=O)(=O)n1cc2c(n1)CN([C@@H]1C[C@H](N)[C@@H](c3cc(F)ccc3F)[C@@H]3C[C@@H]31)C2 [Example 3] | –

The next lines start with the compound.

SMILES | IC50 [1] | further results
CC[C@H](C)[C@H](N)C(=O)N1CCC[C@H]1C(=O)N[C@H](C(=O)O)[C@@H](C)CC [diprotin A] | – | degradation of GRF in plasma to GRF[3-44] (DPP-4): prevented
CC(C)[C@H](N)C(=O)N1CCC[C@H]1B(O)O [Val-Boro-Pro] | – | hematopoiesis (mouse): stimulated hematopoiesis
CC(C)N1CCC(c2ccccc2)(c2ccccc2)CC1 [Prodipine, Pro-Pro-diphenyl-phosphonate] | – | cardiac allograft survival (rats): 14 day

Source: patent US9315508B2, “Treating diabetes with dipeptidyl peptidase-IV inhibitors” (Merck Sharp & Dohme Corp., priority 2012, dated 2016)
